Source: PMC6750704 (Journal of medicinal chemistry, 2019)

System: paradoxical MEK/ERK pathway activation in NRAS Q61K Sbcl2 melanoma cells
Experiment: Vemurafenib induced paradoxical MEK/ERK activation, Western blotting
Type: cell-based, human
Conditions: 1 μM, control peptide treated Sbcl2 cells

How did the “effect on pMEK and pERK levels” value turn out when `CCCS(=O)(=O)Nc1ccc(F)c(C(=O)c2c[nH]c3ncc(-c4ccc(Cl)cc4)cc23)c1F` [vemurafenib] was run?
The value was “induces paradoxical MEK/ERK pathway activation”.
